Point of comparison: `Cc1cccc(NC(=O)NCC(=O)N(CC(=O)Nc2cccc3cccnc23)c2ccccc2)c1`, melting point 170 °C. Against it:
- Nc1ccc(S(=O)(=O)c2cc(-c3cccc(Cl)c3)nc(N3CCCC3)c2)cc1 — higher, 260 to 261 °C
- CCOc1ccc(-c2ccc(C#N)cc2)cc1C=O — lower, 110 to 121 °C
- O=C(C=Cc1cccnc1)NC(Cc1c[nH]c2ccccc12)C(=O)CCc1cc(C(F)(F)F)cc(C(F)(F)F)c1 (configuration not stated) — lower, 138 to 139 °C
- CC(C)OC(=O)c1cc(-n2c(=O)c3c(n(C)c2=O)CCC3)c(F)cc1Br — lower, 116 to 120 °C
- O=C1CCSc2c(O)cccc21 — higher, 225 to 232 °C
- CC(C)(C)OC(=O)NCc1ccc(CC(=O)Nc2ccc(Nc3cc(-c4cccc5c4oc4ccccc45)ncn3)cc2)cc1 — higher, 238 to 240 °C
- CC(C)Oc1ccccc1-c1ccoc1C(=O)NNC(=O)c1ccc(O)c(C#N)c1 — lower, 128 to 130 °C
- CCCOc1ccc(C=CC(=O)N2CCN(C)CC2)cc1-c1nc2c(C)cccc2c(=O)[nH]1 — higher, 184 to 185 °C
- Cc1ncc(CN2CCC(COCc3ccccc3)CC2)c(N)n1 — lower, 106 to 108 °C
- Oc1cc2c3ccc(O)c(O)c3n(Cc3ccc(C(F)(F)F)cc3)c2cc1O — higher, 266 to 270 °C
- O=[N+]([O-])c1c(Br)nn(CC(O)CO)c1NCc1ccccc1 (configuration not stated) — lower, 90.1 °C
- CCCCN1CC(=O)N2[C@@H](c3ccc(NC(C)=O)cc3)c3[nH]c4ccccc4c3C[C@@H]2C1=O (relative stereo) — higher, 246 °C
- COc1ccc(C(=O)Nc2ccccc2)cc1NC(=S)Nc1cc(C(F)(F)F)cc(C(F)(F)F)c1 — higher, 192 to 193 °C
- O=C(O)Cc1cccc2c(=O)cc(-c3ccc(F)c(F)c3)oc12 — lower, 145 to 147 °C
- COc1cc(Cc2cnc(N)nc2N)cc(OC)c1C(C)(C)O — higher, 183 to 185 °C
- COc1ccc(C(=O)Nc2ccccc2)c(C)c1 — lower, 149 to 150 °C
- O=C(O)c1cccc(NC(=O)C(CS)Cc2ccc(F)cc2F)c1 (configuration not stated) — not separable, 168 to 170 °C
- CCCCCN(C(=O)Nc1ccc2c(c1)C(C)(C)CCC2(C)C)c1ccc(C(=O)O)cc1 — higher, 201 to 202 °C
- ON=C(c1ccccc1OCc1ccc(Cl)cc1)n1ccnc1 — higher, 196 to 197 °C
- Cn1cc(-c2nc3c(N[C@H]4[C@@H](C(N)=O)[C@@H]5C=C[C@H]4C5)ccnc3[nH]2)cn1 — higher, 236 to 238 °C
- O=C1c2cc(Cl)ccc2Cc2cccc(Cl)c21 — lower, 160 to 165 °C
- CCOC(=O)C(=O)c1cccc(NC=O)n1 — lower, 124 to 126 °C
- Cc1nc(-c2cnc3[nH]cc(C(=O)N[C@@H](C(=O)N4CC(C#N)C4)C4CC4)c3n2)cn1-c1ccccc1 — higher, 175 to 179 °C
- COc1ccc(Cn2nc(CO)c3cc(OC)c(OC)cc32)cc1OC — higher, 187 °C
- Cc1cc2c(cc1Sc1ccc(C(=O)O)cn1)C(C)(C)CCC2(C)C — higher, 257 to 260 °C
- CCCC/C=C\c1c([C@H](O)[C@H](CCCC)NC(=O)[C@H](CC(C)C)NC(=O)OCC2CCCCC2)c1=O — lower, 138 to 140 °C
- CCCCCCCCCCCCCCCC(=O)NC(=O)OCc1nc(C(C)C)c(Sc2cc(Cl)cc(Cl)c2)n1CC — lower, 95 to 97 °C
- CCC(CCOC)c1ccc(Cl)c2nc3n(c12)CCCN3c1ccc(Cl)cc1Cl (configuration not stated) — lower, 144 to 146 °C
- CCOC(=O)Cc1nc2cc(OC)c(OC)cc2c(-c2ccc(OC)c(OC)c2)c1C(=O)OCC — lower, 146 to 147 °C
- Cc1nc(-n2cnn(CC3CC3)c2=O)sc1C(=O)NCc1cocn1 — lower, 157 to 158 °C
- Cc1cccc(C)c1NC(=O)CN1CCN(CCCC(c2ccc(F)cc2)c2ccc(F)cc2)CCN1 — lower, 145 to 148 °C
- CCNC(=O)OCCOc1ccc(Oc2cccc(Cl)c2)cc1Cl — lower, 73 to 74 °C
- CCOC(=O)N1CCN(c2ccc(Br)cn2)CC1 — lower, 68 °C
- CC(C)(C)OC(=O)NCC1(CC(N)=O)CCCCC1 — lower, 123 to 125 °C
- O=C(O)COc1ccc(-c2c(Cl)c(CN3C(=O)CCC3=O)nc3sc4c(c23)CCS(=O)(=O)C4)cc1 — higher, 260 to 261 °C
- O=c1c2c(oc3ccc(Br)cc13)CCCC2 — lower, 149 to 150 °C

From a melting point compilation (Tetko et al.; mined from patent text by program, amines drawn as free bases though some values may be those of a salt)
